Experimental data as given in ChEMBL document CHEMBL5380843 (J Med Chem, 2023).
pEC50, pIC50: −log10 of the molar value.

Tests used:
[1] = test system: Human immunodeficiency virus 1; experiment: Antiviral activity against wild type HIV-1 IIIB harboring reverse transcriptase Y188L mutant infected in human MT4 cells assessed as protection against virus-induced cytopathic effect incubated for 5 days by MTT assay; assay type: functional, organism-based; details: Human immunodeficiency virus 1, IIIB, MT4, 120 h
[2] = Cmax in Sprague-Dawley rat at 10 mg/kg, po measured upto 24 hrs by LC-MS/MS analysis; assay type: ADME, organism-based; parameters: time < 24 hrs, dose 10 mg/kg, route po; details: in vivo
[3] = target: Human immunodeficiency virus type 1 reverse transcriptase (Human immunodeficiency virus 1, UniProt Q72547); experiment: Inhibition of recombinant wild type HIV-1 reverse transcriptase using DNA/RNA as substrate incubated for 40 mins by Pico-green dye based spectrofluorometric analysis
[4] = Acute toxicity in 12 hr fasted female CD-1(ICR) mouse assessed as pathological damage in heart at 2 g/Kg, IG measured after 14 days by H and E staining based analysis; assay type: tissue-based; details: in vivo, po, 2000 mg/kg, 336 h, time 14 day
[5] = Tmax in Sprague-Dawley rat at 10 mg/kg, po measured upto 24 hrs by LC-MS/MS analysis; assay type: ADME, organism-based; details: in vivo
Cytochrome P450 3A4 [6] = target: T1, Cytochrome P450 3A4 (Homo sapiens, UniProt P08684); experiment: Inhibition of CYP3A4 in human liver microsomes using midazolam as substrate incubated for 15 to 45 mins in presence of NADPH; assay type: ADME, Microsome
T1 sequence (P08684 whole entry): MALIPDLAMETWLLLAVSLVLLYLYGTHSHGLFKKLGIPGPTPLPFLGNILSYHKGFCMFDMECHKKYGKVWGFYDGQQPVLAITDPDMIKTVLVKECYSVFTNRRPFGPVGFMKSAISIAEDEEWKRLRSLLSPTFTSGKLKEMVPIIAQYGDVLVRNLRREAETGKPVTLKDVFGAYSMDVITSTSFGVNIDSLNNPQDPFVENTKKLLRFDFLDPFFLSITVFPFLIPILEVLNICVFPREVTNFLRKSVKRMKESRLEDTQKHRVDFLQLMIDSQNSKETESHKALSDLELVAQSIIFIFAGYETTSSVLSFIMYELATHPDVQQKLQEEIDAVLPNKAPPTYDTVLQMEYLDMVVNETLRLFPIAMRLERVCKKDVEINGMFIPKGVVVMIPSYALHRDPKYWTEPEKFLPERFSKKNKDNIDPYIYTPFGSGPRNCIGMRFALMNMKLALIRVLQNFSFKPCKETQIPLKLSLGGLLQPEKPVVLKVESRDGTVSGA

[7] = MRT (0 to t) in Sprague-Dawley rat at 10 mg/kg, po measured upto 24 hrs by LC-MS/MS analysis; assay type: ADME, organism-based; details: in vivo
[8] = AUC (0 to infinity) in Sprague-Dawley rat at 10 mg/kg, po measured upto 24 hrs by LC-MS/MS analysis; assay type: ADME, organism-based; parameters: dose 10 mg/kg, time < 24 hrs, route po; details: in vivo
[9] = AUC (0 to t) in Sprague-Dawley rat at 10 mg/kg, po measured upto 24 hrs by LC-MS/MS analysis; assay type: ADME, organism-based; parameters: dose 10 mg/kg, time < 24 hrs, route po; details: in vivo
[10] = Acute toxicity in 12 hr fasted female CD-1(ICR) mouse assessed as pathological damage in lung at 2 g/Kg, IG measured after 14 days by H and E staining based analysis; assay type: tissue-based; details: in vivo, po, 2000 mg/kg, 336 h, time 14 day
[11] = Acute toxicity in 12 hr fasted female CD-1(ICR) mouse assessed as changes in body weight at 2 g/Kg, IG measured after 14 days; details: in vivo, po, 2000 mg/kg, 336 h, time 14 day
[12] = test system: Human immunodeficiency virus 1; experiment: Antiviral activity against wild type HIV-1 IIIB harboring reverse transcriptase K103N mutant infected in human MT4 cells assessed as protection against virus-induced cytopathic effect incubated for 5 days by MTT assay; assay type: functional, organism-based; details: Human immunodeficiency virus 1, IIIB, MT4, 120 h
Cytochrome P450 2C19 = Cytochrome P450 2C19 (Homo sapiens, UniProt P33261); experiment: Inhibition of CYP2C19 in human liver microsomes using S-mephenytoin as substrate incubated for 15 to 45 mins in presence of NADPH; assay type: ADME, Microsome
Chain of Cytochrome P450 2C19 (P33261 whole entry): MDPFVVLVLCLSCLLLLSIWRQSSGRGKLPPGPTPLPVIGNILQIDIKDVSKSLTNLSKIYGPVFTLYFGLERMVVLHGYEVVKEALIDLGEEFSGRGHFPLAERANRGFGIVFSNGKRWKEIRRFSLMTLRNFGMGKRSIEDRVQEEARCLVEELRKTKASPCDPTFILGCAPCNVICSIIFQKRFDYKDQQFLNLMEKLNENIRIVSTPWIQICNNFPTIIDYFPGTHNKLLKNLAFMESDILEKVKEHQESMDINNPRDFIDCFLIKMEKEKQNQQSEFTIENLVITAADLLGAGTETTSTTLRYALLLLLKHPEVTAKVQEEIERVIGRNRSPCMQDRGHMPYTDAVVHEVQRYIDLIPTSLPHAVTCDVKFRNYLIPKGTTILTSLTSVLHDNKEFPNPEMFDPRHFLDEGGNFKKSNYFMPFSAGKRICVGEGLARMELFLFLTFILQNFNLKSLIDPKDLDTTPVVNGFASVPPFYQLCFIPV

[13] = test system: Human immunodeficiency virus 1; experiment: Antiviral activity against wild type HIV-1 IIIB harboring reverse transcriptase […] mutant infected in human MT4 cells assessed as protection against virus-induced cytopathic effect incubated for 5 days by MTT assay; assay type: functional, organism-based; details: Human immunodeficiency virus 1, IIIB, MT4, 120 h
[14] = Acute toxicity in 12 hr fasted male CD-1(ICR) mouse assessed as pathological damage in liver at 2 g/Kg, IG measured after 14 days by H and E staining based analysis; assay type: tissue-based; details: in vivo, po, 2000 mg/kg, 336 h, time 14 day
[15] = AUC (0 to t) in Sprague-Dawley rat at 1 mg/kg, iv measured upto 24 hrs by LC-MS/MS analysis; assay type: ADME, organism-based; parameters: time < 24 hrs, dose 1 mg/kg, route iv; details: in vivo
[16] = Acute toxicity in 12 hr fasted female CD-1(ICR) mouse assessed as pathological damage in liver at 2 g/Kg, IG measured after 14 days by H and E staining based analysis; assay type: tissue-based; details: in vivo, po, 2000 mg/kg, 336 h, time 14 day
[17] = MRT (0 to infinity) in Sprague-Dawley rat at 1 mg/kg, iv measured upto 24 hrs by LC-MS/MS analysis; assay type: ADME, organism-based; details: in vivo
[18] = Resistant factor, ratio of EC50 for antiviral activity against HIV-1 IIIB harboring reverse transcriptase E138K mutant to EC50 for antiviral activity against wild type HIV-1 IIIB; assay type: functional
[19] = Cytotoxicity against human MT4 cells assessed as reduction in cell viability incubated for 5 days by MTT assay; assay type: toxicity, cell-based; details: time 5 day
[20] = test system: Human immunodeficiency virus 1; experiment: Antiviral activity against wild type HIV-1 IIIB infected in human MT4 cells assessed as protection against virus-induced cytopathic effect incubated for 5 days by MTT assay; assay type: functional, organism-based; details: Human immunodeficiency virus 1, IIIB, MT4, 120 h
[21] = MRT (0 to t) in Sprague-Dawley rat at 1 mg/kg, iv measured upto 24 hrs by LC-MS/MS analysis; assay type: ADME, organism-based; details: in vivo
[22] = AUC (0 to infinity) in Sprague-Dawley rat at 1 mg/kg, iv measured upto 24 hrs by LC-MS/MS analysis; assay type: ADME, organism-based; parameters: time < 24 hrs, dose 1 mg/kg, route iv; details: in vivo
Cytochrome P450 3A4 [23] = target: T1, Cytochrome P450 3A4; experiment: Inhibition of CYP3A4 in human liver microsomes using testosterone as substrate incubated for 15 to 45 mins in presence of NADPH; assay type: ADME, Microsome
[24] = Acute toxicity in 12 hr fasted male CD-1(ICR) mouse assessed as changes in body weight at 2 g/Kg, IG measured after 14 days; details: in vivo, po, 2000 mg/kg, 336 h, time 14 day
[25] = Acute toxicity in 12 hr fasted female CD-1 (ICR) mouse assessed as death at 2 g/Kg, IG measured after 14 days; details: in vivo, po, 2000 mg/kg, 336 h, time 14 day
[26] = Half life in Sprague-Dawley rat at 10 mg/kg, po measured upto 24 hrs by LC-MS/MS analysis; assay type: ADME, organism-based; details: in vivo
[27] = Cmax in Sprague-Dawley rat at 1 mg/kg, iv measured upto 24 hrs by LC-MS/MS analysis; assay type: ADME, organism-based; parameters: time < 24 hrs, dose 1 mg/kg, route iv; details: in vivo
[28] = Acute toxicity in 12 hr fasted male CD-1(ICR) mouse assessed as pathological damage in brain at 2 g/Kg, IG measured after 14 days by H and E staining based analysis; assay type: tissue-based; details: in vivo, po, 2000 mg/kg, 336 h, time 14 day
[29] = Resistant factor, ratio of EC50 for antiviral activity against HIV-1 IIIB harboring reverse transcriptase K103N mutant to EC50 for antiviral activity against wild type HIV-1 IIIB; assay type: functional
[30] = Oral bioavailability in Sprague-Dawley rat at 10 mg/kg measured upto 24 hrs by LC-MS/MS analysis; assay type: ADME, organism-based; details: in vivo
[31] = target: Voltage-gated inwardly rectifying potassium channel KCNH2 (Homo sapiens, UniProt Q12809); experiment: Inhibition of hERG expressed in CHO cells by Qpatch assay; assay type: toxicity, cell-based
Chain of Voltage-gated inwardly rectifying potassium channel KCNH2 (Q12809 whole entry): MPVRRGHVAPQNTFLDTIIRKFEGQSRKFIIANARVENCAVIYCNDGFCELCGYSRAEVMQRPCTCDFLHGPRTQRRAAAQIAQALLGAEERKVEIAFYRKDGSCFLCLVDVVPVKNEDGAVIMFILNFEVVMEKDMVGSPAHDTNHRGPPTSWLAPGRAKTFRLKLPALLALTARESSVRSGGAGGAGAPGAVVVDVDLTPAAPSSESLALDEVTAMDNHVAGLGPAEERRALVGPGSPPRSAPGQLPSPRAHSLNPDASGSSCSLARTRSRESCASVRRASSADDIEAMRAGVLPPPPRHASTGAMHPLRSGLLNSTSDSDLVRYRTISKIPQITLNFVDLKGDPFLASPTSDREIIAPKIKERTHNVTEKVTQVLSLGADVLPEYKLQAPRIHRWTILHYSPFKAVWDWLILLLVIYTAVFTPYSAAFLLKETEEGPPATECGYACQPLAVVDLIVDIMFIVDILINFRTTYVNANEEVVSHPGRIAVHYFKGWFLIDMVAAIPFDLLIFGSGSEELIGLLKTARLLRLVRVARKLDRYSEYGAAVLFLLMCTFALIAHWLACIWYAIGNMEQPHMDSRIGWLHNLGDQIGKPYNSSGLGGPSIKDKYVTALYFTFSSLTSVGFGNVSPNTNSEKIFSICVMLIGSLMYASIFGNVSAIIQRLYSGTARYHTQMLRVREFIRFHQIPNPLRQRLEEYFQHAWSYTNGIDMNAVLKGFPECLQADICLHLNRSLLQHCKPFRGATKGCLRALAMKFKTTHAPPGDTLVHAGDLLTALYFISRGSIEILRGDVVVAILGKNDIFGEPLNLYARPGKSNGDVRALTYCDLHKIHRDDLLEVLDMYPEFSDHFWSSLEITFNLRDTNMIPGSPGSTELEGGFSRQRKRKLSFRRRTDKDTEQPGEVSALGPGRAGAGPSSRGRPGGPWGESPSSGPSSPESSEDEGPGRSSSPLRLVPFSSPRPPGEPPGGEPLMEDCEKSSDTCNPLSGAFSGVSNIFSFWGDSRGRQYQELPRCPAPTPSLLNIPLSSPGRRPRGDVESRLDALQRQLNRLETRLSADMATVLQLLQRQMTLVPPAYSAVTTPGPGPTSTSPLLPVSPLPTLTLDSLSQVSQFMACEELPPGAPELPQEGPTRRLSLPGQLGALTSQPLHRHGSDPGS

[32] = Tmax in Sprague-Dawley rat at 1 mg/kg, iv measured upto 24 hrs by LC-MS/MS analysis; assay type: ADME, organism-based; details: in vivo
[33] = Acute toxicity in 12 hr fasted male CD-1(ICR) mouse assessed as behavioral abnormalities at 2 g/Kg, IG measured after 14 days; details: in vivo, po, 2000 mg/kg, 336 h, time 14 day
[34] = Resistant factor, ratio of EC50 for antiviral activity against HIV-1 IIIB harboring reverse transcriptase Y188L mutant to EC50 for antiviral activity against wild type HIV-1 IIIB; assay type: functional
[35] = Selectivity index, ratio of CC50 for cytotoxicity against human MT4 cells to EC50 for antiviral activity against wild type HIV-1 IIIB infected in human MT4 cells; assay type: toxicity, cell-based; details: read-out: Ratio CC50/EC50
[36] = Acute toxicity in 12 hr fasted male CD-1(ICR) mouse assessed as pathological damage in spleen at 2 g/Kg, IG measured after 14 days by H and E staining based analysis; assay type: tissue-based; details: in vivo, po, 2000 mg/kg, 336 h, time 14 day
[37] = Resistant factor, ratio of EC50 for antiviral activity against HIV-1 IIIB harboring reverse transcriptase […] mutant to EC50 for antiviral activity against wild type HIV-1 IIIB; assay type: functional

Q: With `CONC(=O)c1cnc(Nc2ccc(C#N)cc2)nc1Oc1c(C)cc(-c2ccc(C#N)cc2)cc1C` as the compound, how does the pEC50 [1] read?
A: The pEC50 was 7.28.

Q: And the Cmax [2]?
A: The Cmax was 616 ng/mL.

Q: And the pIC50 [3]?
A: The pIC50 was 7.33.

Q: What about the Activity [4] of the same compound?
A: Its Activity is “Non-Toxic”.

Q: What about the Tmax [5] of the same compound?
A: Its Tmax is 2 h.

Q: What about the pIC50 (Cytochrome P450 3A4 [6]) of the same compound?
A: The pIC50 was under 4.30.

Q: What about the MRT last at 24 h [7] of the same compound?
A: Its MRT last at 24 h is 4.54 h.

Q: And the AUC(0-inf) [8]?
A: Its AUC(0-inf) is 3650 ng·h/mL.

Q: And the AUC(0-t) at 24 h [9]?
A: Its AUC(0-t) at 24 h is 3570 ng·h/mL.

Q: And the Activity [10]?
A: Its Activity is “Non-Toxic”.

Q: And the Activity [11]?
A: Its Activity is “Non-Toxic”.

Q: What about the pEC50 [12] of the same compound?
A: Its pEC50 is 8.10.

Q: And the pIC50 (Cytochrome P450 2C19)?
A: Its pIC50 is 4.63.

Q: What about the pEC50 [13] of the same compound?
A: The pEC50 was 7.89.

Q: What about the Activity [14] of the same compound?
A: Its Activity is “Non-Toxic”.

Q: And the AUC(0-t) at 24 h [15]?
A: Its AUC(0-t) at 24 h is 1160 ng·h/mL.

Q: And the Activity [16]?
A: Its Activity is “Non-Toxic”.

Q: What about the MRT inf [17] of the same compound?
A: Its MRT inf is 3.75 h.

Q: And the “Ratio EC50” value [18]?
A: Its value is 2.6.

Q: What about the CC50 at 120 h [19] of the same compound?
A: The CC50 at 120 h was over 40800 nM.

Q: And the pEC50 [20]?
A: Its pEC50 is 8.70.

Q: And the MRT last at 24 h [21]?
A: Its MRT last at 24 h is 3.56 h.

Q: What about the AUC(0-inf) [22] of the same compound?
A: Its AUC(0-inf) is 1170 ng·h/mL.

Q: What about the pIC50 (Cytochrome P450 3A4 [23]) of the same compound?
A: Its pIC50 is under 4.30.

Q: What about the Activity [24] of the same compound?
A: Its Activity is “Non-Toxic”.

Q: And the Activity [25]?
A: Its Activity is “Non-Toxic”.

Q: And the half-life [26]?
A: The half-life was 5.18 h.

Q: What about the Cmax [27] of the same compound?
A: The Cmax was 431 ng/mL.

Q: And the Activity [28]?
A: Its Activity is “Non-Toxic”.

Q: What about the “Ratio EC50” value [29] of the same compound?
A: Its value is 3.5.

Q: What about the bioavailability [30] of the same compound?
A: The bioavailability was 31.2%.

Q: What about the pIC50 [31] of the same compound?
A: The pIC50 was under 4.40.

Q: What about the Tmax [32] of the same compound?
A: Its Tmax is 4.98 min.

Q: And the Activity [33]?
A: The Activity was “Non-Toxic”.

Q: And the “Ratio EC50” value [34]?
A: The value was 23.

Q: What about the selectivity ratio [35] of the same compound?
A: The selectivity ratio was over 17400.

Q: And the Activity [36]?
A: The Activity was “Non-Toxic”.

Q: What about the “Ratio EC50” value [37] of the same compound?
A: Its value is 5.7.
